Experimental data taken from paper PMC10572347, “Structure–Activity Relationships and Antiplasmodial Potencies of Novel 3,4-Disubstituted 1,2,5-Oxadiazoles” (International Journal of Molecular Sciences, 2023).
Where two headings read alike, the source gives them in different places.

How the values were obtained:
P. falciparum NF54 [1] = experiment: In vitro microplate assay against P. falciparum (3H-hypoxanthine incorporation); type: cell-based, Plasmodium falciparum; conditions: for S.I. = IC50 (Cyt.)/IC50 (P.f.NF54): L-6 cells vs P.f. NF54
Method: In vitro activity against the erythrocytic stages of P. falciparum was determined using a ^3H-hypoxanthine incorporation assay, using the drug sensitive NF54 strain [37]. […] The 96-well plates were incubated in a humidified atmosphere at 37 °C, 4% CO2, 3% O2 and 93% N2. After 48 h, 0.05 mL of ^3H-hypoxanthine (=0.5 µCi) was added to each well of the plate. The plates were incubated for a further 24 h under the same conditions. The plates were then harvested with a Betaplate cell harvester (Wallac, Zurich, Switzerland). The red blood cells were transferred onto a glass fiber filter and washed with distilled water. The dried filters were inserted into a plastic foil with 10 mL of scintillation fluid and counted in a Betaplate liquid scintillation counter (Wallac, Zurich, Switzerland). The IC50 values were calculated from sigmoidal inhibition curves by linear regression using Microsoft Excel. Chloroquine (Sigma C6628) was used as control.

L-6 cells [2] = experiment: In vitro cytotoxicity with L-6 cells (resazurin); type: cell-based, rat
Method: (§1) Serial drug dilutions of 11 3-fold dilution steps covering a range from 100 to 0.002 μg/mL were prepared. After 70 h of incubation, the plates were inspected under an inverted microscope to assure the growth of the controls and sterile conditions. […] The plates were read with a Spectramax Gemini XS microplate fluorometer (Molecular Devices Cooperation, Sunnyvale, CA, USA) using an excitation wavelength of 536 nm and an emission wavelength of 588 nm. The IC50 values were calculated by linear regression from the sigmoidal dose inhibition curves using SoftmaxPro software Version 8.2.1 (Molecular Devices Cooperation, Sunnyvale, CA, USA). Podophyllotoxin (Sigma P4405) was used as control.

CYP3A4 = CYP3A4 (Homo sapiens, UniProt P08684); experiment: Cytochrome P450 3A4 inhibition assay (P450-Glo, Luciferin-IPA); conditions: recombinant human CYP3A4 Supersomes (+ oxidoreductase + b5), pH 7.4, probe Luciferin-IPA
Method: The CYP3A4 inhibition assay was performed using 96-well white plates (Greiner Bio-One) at a pH of 7.4. […] Stock solutions were further diluted to a final concentration of 20 µM using water (HPLC grade). The luciferin IPA stock solution (3 mM) was diluted to a final concentration of 0.3 mM using water (HPLC grade). The CYP3A4 reaction mixture was prepared by mixing water (HPLC grade) with potassium phosphate buffer (1 M), luciferin IPA (0.3 mM) and CYP3A4 membrane (1 pmol/µL). The control reaction mixture was prepared using water (HPLC grade), potassium phosphate buffer (1 M), luciferin IPA (0.3 mM) and membrane without CYP activity (1 pmol/µL). Solutions A and B of the NADPH regeneration system were mixed and HPLC grade water was added. The reconstituted luciferin detection reagent was prepared by mixing the reconstituted buffer with esterase with the luciferin detection reagent. Then, solutions of test compounds and standard were added to the wells of the 96-well white plate; each was tested in triplicate. The CYP3A4 reaction mixture was added to each well and the plate was incubated for 10 min at room temperature. After that, the NADPH regeneration system was added, inducing the reaction followed by an incubation time of 10 min at ambient temperature. By adding the reconstituted luciferin detection reagent, the reaction was terminated and a luminescent signal was formed. Luminescence was measured by a SpectraMax M3 UV plate reader (Molecular Devices). The relative light units (RLU) were received from a calibration curve with beetle luciferin. […] The CYP3A4 inhibition (%) was calculated from the RLU.

P. falciparum NF54 [3] = tested on: P. falciparum NF54; parameters: method as in PMID 33925485; conditions: formerly prepared compounds 1–5, cited from earlier work; for IC50: chloroquine-sensitive strain NF54, read-out: P.f. NF54 IC50
L-6 cells [4] = tested on: L-6 cells; parameters: method as in PMID 33925485; conditions: formerly prepared compounds 1–5; read-out: Cytotoxicity L-6 Cells IC50; cited from earlier work
[5] = In vitro cytotoxicity with L-6 cells (resazurin); type: cell-based, rat; conditions: rat
Method: as §1

[6] = rat skeletal myofibroblasts, average of four determinations, read-out: Cytotoxicity L-6 Cells IC50

CYP3A4, sequence (P08684 2-503 limits assumed): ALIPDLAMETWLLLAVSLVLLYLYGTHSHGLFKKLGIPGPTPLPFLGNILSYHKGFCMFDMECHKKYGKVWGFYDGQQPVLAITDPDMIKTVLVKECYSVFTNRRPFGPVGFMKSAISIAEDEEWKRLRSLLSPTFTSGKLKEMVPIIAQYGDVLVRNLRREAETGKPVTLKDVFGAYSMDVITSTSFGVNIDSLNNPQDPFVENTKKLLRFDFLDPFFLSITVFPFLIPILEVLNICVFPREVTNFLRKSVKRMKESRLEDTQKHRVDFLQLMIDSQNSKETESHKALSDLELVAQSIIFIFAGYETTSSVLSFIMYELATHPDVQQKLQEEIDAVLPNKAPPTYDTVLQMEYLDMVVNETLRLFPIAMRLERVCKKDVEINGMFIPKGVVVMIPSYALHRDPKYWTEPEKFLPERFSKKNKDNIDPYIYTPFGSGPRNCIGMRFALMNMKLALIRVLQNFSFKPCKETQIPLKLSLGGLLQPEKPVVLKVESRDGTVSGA

Molecule	IC50 (P. falciparum NF54 [3]) [µM]	S.I. = IC50 (Cyt.)/IC50 (P.f.NF54) (P. falciparum NF54 [3])	IC50 (L-6 cells [4]) [µM]	also measured
CCN(CC)CCCC(C)Nc1ccnc2cc(Cl)ccc12 (stereo not drawn) [CQ, chloroquine, reference compound]				S.I. = IC50 (Cyt.)/IC50 (P.f.NF54) (P. falciparum NF54 [1]): 9672; IC50 (P. falciparum NF54 [1]; Plasmodium falciparum, NF54, read-out: P.f. NF54 IC50): 0.009 µM; IC50 (L-6 cells [2]; [6]): 90.9 µM
CCOc1ccc(-c2nonc2NC(=O)c2cccc(C)c2)cc1OCC [Compound 1, reference compound]	0.011	14,483	159	inhibition at 10 min, 20 µM (CYP3A4): 45%
CCOc1ccc(-c2nonc2NC(=O)c2ccccc2)cc1OCC [Compound 2]	0.076	1463	111	
CCOc1ccc(-c2nonc2NC(=O)c2cccc(F)c2)cc1OCC [Compound 3]	0.049	839.6	41.1	
CCOc1ccc(-c2nonc2NC(=O)c2cccc(C(F)(F)F)c2)cc1OCC [Compound 4]	0.019	524.6	9.97	
CCOc1ccc(-c2nonc2NC(=O)c2ccc(OC)c(Cl)c2)cc1OCC [Compound 5]	0.014	1431	20	
Cc1cccc(C(=O)Nc2nonc2-c2cccc(N)c2)c1 [Compound 61, N-[4-(3-Aminophenyl)-1,2,5-oxadiazol-3-yl]-3-methylbenzamide]				S.I. = IC50 (Cyt.)/IC50 (P.f.NF54) (P. falciparum NF54 [1]): 6.182; IC50 (P. falciparum NF54 [1]; Plasmodium falciparum, NF54, chloroquine-sensitive strain NF54, average of four determinations, read-out: P.f. NF54 IC50): 30.2 µM; IC50 at 72 h [5]: 186 µM; inhibition at 10 min, 20 µM (CYP3A4): 99%; melting point: 172 °C
COc1cc([C@@H]2c3cc4c(cc3[C@H](O)[C@H]3COC(=O)[C@H]23)OCO4)cc(OC)c1OC [POD, podophyllotoxin, reference compound]				IC50 (L-6 cells [2]; [6]): 0.012 µM
N-[4-(4-Fluorophenyl)-3-(trifluoromethyl)-1,2,5-oxadiazol-3-yl]benzamide [Compound 50]				IC50 (P. falciparum NF54 [1]; chloroquine-sensitive strain NF54, average of four determinations, read-out: P.f. NF54 IC50): 8.68 µM; IC50 (L-6 cells [2]): 7.4 µM
